The target of assay [1] is T1, HDAC1 human recombinant (Homo sapiens, UniProt Q13547).
T1 construct: purchased Enzo Life Science BML-AK511
Description: HDAC1 inhibitory activity, fluorometric kit. The conditions noted are these: Class I. In kind it is biochemical.

For assay [2], the system named is α-SMA expression in CFs. Description: α-SMA expression levels in cardiac fibroblasts, western blot. To be noted: for α-SMA expression levels: 5 μM for 48 h, absence of TGF-β1, vs. control; for α-SMA expression levels induced by TGF-β1: derivatives 5 μM (TSA 0.1 μM) for 48 h in presence of TGF-β1. In kind it is cell-based, rat. The method, then: For this purpose, a fixed concentration of 5a, 6a, 7a and 8a derivatives in the presence/absence of TGF–β1 (a strong inducer of CFs–to–CMFs differentiation), was studied, and α–SMA expression levels were measured by using the western blot technique. TSA was used as a control and also for comparative purposes.
(§1) For the analysis of the protein expression of histone H4–acetylated (ac–H4) and total H4 histone, a number of 1 × 10^6 of CFs seeded in 60 mm plates was used, which were incubated with the inhibitory compounds at a concentration of 10 μM, in the absence/presence of TGF–β1(5ng/mL) for 4 h. Subsequently, total histones were extracted by the technique of saline precipitation (high salt extraction). Briefly, CFs were scraped from the plates with 1 mL of cold PBS transferring their contents to Eppendorf tubes to be centrifuged for 60 s at 1500 rpm at 4 °C and re–suspended in 400 μL of cold buffer A (10 mM 4-(2-hydroxyethyl)-1-piperazineethanesulfonic acid-KOH (HEPES-KOH) adjusted to pH 7.9, 1.5 mM MgCl2, 10 mM KCl, 0.5 mM dithiothreitol and 0.2 mM phenylmethylsulfonyl fluoride (PMSF). The suspension is left on ice for 10 min and then placed in the vortex for 10 s. The samples were centrifuged for 60 s, subsequently discarding the supernatant fraction. The obtained pellet was re-suspended in 60 μL of cold C buffer (20 mM HEPES-KOH adjusted to pH 7.9, 25% glycerol, 420 mM NaCl, 1.5 mM MgCl2, 0.2 mM EDTA, dithiothreitol 0.5 mM and 0.2 mM PMSF) and placed on ice for 20 min for saline precipitation. Cell debris is removed by centrifugation for 120 s at 1500 rpm at 4 °C and the supernatant fraction, which contains the DNA binding proteins, is stored at minus 20 °C. For the analysis of α–SMA and procollagen type I expression levels, 3×10^5 CFs seeded in 35 mm plates were used, which were incubated together with inhibitor compounds at a 5 μM, in the absence/presence of TGF–β1 (5 ng/mL) for 48 h. To obtain the total proteins, the CFs were washed three times with cold PBS, then scraped and lysed with 50 μL of radio inmuno-precipitation assay (RIPA) lysis buffer (10 mM Tris–HCl pH 7.2, 5 mM EDTA, 150 mM NaCl, Triton X–100 1%, sodium dodecyl sulfate (SDS) 0.1%, deoxycholate 1%, leupeptin 2 μg/mL, aprotinin 10mM, PMSF 1mM and Na3VO4 100μM). The solution was centrifuged for 15 min at 10,000 rpm and at 4 °C. The supernatant fraction containing the total proteins was stored at minus 20 °C. The concentration of proteins obtained was determined by spectrophotometry at 570 nm, using the Bradford method (Bio-Rad, Hercules, CA, USA).
CFs proteins (25 μg), were subjected to 10% sodium dodecyl sulfate-polyacrylamide gel electrophoresis and finally transferred onto a nitrocellulose membrane (Millipore, Billerica, MA, USA). The membrane was washed twice with tris–buffered saline solution containing 0.1% Tween 20 (TBST). After being blocked with TBST containing 5% nonfat milk for 40 min, the membrane was incubated with primary antibodies in TBST/1% nonfat milk at 4 °C overnight. The membrane was washed three times with TBST for a total of 15 min and then incubated with primary antibodies (ac–H4, H4 total, α-SMA, procollagen type I and GAPDH). Then the membrane was incubated with goat anti–rabbit or anti-mouse IgG antibodies conjugated with horseradish (diluted 1:1000) for 1 h at room temperature. Signals were developed with ECL reagents and exposure to photographic film.
Figure 4 CTz non–substituted inhibit α-SMA expression in cardiac fibroblasts. (A) CFs were exposed to 5a, 6a, 7a and 8a at 5 μM for 48 h. […] (B) CFs were exposed to 5a, 6a, 7a and 8a at 5 μM for 48 h in presence of TGF–β1 ([…]). α-SMA expression levels were measured by western blot. GAPDH was used as control load.
A general note: In western blotting, separated proteins are transferred to a membrane and probed.

The subject of assay [3] is histone H4-acetylated in CFs. Description: Histone H4-acetylated expression in cardiac fibroblasts, western blot. The format is cell-based, rat. To be noted: 5 μM for 8 h, vs. control. The method, then: For this purpose, CFs of neonatal rats were incubated in the presence/absence of the 5a, 6a, 7a and 8a derivatives, and the expression of histone H4–acetylated was measured using the western blot technique.
as §1, with “which were incubated with the inhibitory compounds at a concentration of 10 μM, in the absence/presence of TGF–β1(5ng/mL) for 4 h.” left out
CFs proteins (25 μg), were subjected to 10% sodium dodecyl sulfate-polyacrylamide gel electrophoresis and finally transferred onto a nitrocellulose membrane (Millipore, Billerica, MA, USA). The membrane was washed twice with tris–buffered saline solution containing 0.1% Tween 20 (TBST). […]
Figure 3 CTz non–substituted derivatives inhibit histone H4 acetylation. […] Nuclear extracts were isolated and histone H4 acetylation expression levels were measured by western blot. […]

What is called IC50 is the concentration that inhibits the measured activity by half.

T1 sequence (Q13547 whole entry): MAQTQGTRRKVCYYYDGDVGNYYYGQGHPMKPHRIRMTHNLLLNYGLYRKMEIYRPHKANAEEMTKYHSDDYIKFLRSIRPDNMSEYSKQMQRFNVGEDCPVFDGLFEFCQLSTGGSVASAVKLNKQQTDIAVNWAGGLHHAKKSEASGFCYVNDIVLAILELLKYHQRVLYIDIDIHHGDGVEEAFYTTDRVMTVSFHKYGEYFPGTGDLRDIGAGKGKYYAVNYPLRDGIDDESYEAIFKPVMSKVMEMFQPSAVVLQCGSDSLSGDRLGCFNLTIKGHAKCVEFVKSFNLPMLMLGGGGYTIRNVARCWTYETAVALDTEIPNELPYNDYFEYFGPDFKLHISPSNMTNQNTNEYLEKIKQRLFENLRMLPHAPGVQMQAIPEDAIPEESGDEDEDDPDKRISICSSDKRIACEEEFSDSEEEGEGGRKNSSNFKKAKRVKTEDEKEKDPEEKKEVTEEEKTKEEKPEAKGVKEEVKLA

For the compound `O=C(CCCCC1CCSS1)Nc1nc(-c2cc3ccccc3oc2=O)cs1` (stereo not drawn) [Compound 5a, 5-[1,2]-Dithiolan-3-yl-N-[4-(2-oxo-2H-chromen-3-yl)-thiazol-2-yl]-pentanamide], the IC50 in assay [1] was determined as 60.4 ± 1.7 nM. In assay [2], the α-SMA expression levels result is on record as “decreased in a statistically significant manner” and the “α-SMA expression levels induced by TGF-β1” value was “decrease close to control levels”. In addition, in assay [3], the “histone H4-acetylated expression” value is “increase in a statistically significant manner”.

With `O=C(Nc1nc(-c2cc3ccccc3oc2=O)cs1)c1ccc(O)c(O)c1` [Compound 6a], in assay [1], the IC50 was found to be 423 ± 30.2 nM. Moreover, in assay [2], the α-SMA expression levels result was “decreased in a statistically significant manner” and the “α-SMA expression levels induced by TGF-β1” value is listed as “decrease close to control levels”. For the same compound, the “histone H4-acetylated expression” value in assay [3] is recorded as “increase in a statistically significant manner”.

Consider `O=C(O)CCCCC(=O)Nc1nc(-c2cc3ccccc3oc2=O)cs1` [Compound 7a], for which the half-inhibitory concentration (IC50) in assay [1] came out at 7690 ± 328 nM. Further, the α-SMA expression levels result in assay [2] is recorded as “had no effect”. The “histone H4-acetylated expression” value in assay [3] is recorded as “had no effect”.

`O=C(CCCCC(=O)Nc1nc(-c2cc3ccccc3oc2=O)cs1)NO` [Compound 8a, 5-[4-(2-Oxo-2H-chromen-3-yl)-thiazol-2-yl-carbamoyl]-N-hydroxypentanamide]: the half-maximal inhibitory concentration (IC50) in assay [1] is 50.6 ± 2.1 nM. In assay [2], the α-SMA expression levels entry is “decreased in a statistically significant manner” and the “α-SMA expression levels induced by TGF-β1” value is “decrease close to control levels”. In assay [3], the “histone H4-acetylated expression” value is “increase in a statistically significant manner”.

(Values after publication PMC6412891, “Synthesis and Biological Evaluation of Novel Thiazolyl-Coumarin Derivatives as Potent Histone Deacetylase Inhibitors with Antifibrotic Activity” (Molecules, 2019).)
